In PMC3139250 (Phytochemistry letters, 2011):
pIC50: −log10 of the molar value.

Target: mitochondrial ETC complex I (NADH-ubiquinone oxidoreductase) (Homo sapiens, UniProt O75251+O75306+P03886)
Experiment: Oxygen consumption
Format: cell-based

`CC(C)(O)[C@H]1CC[C@](C)([C@@H](O)CC[C@](C)(O)[C@H]2CC[C@H]3O[C@@H]([C@]4(C)CC[C@@H](Br)C(C)(C)O4)CC[C@]3(C)O2)O1` [compound 1, thyrsiferol] showed a pIC50 of 5.52.
